The target in this assay is upper small intestine of rabbit (Oryctolagus cuniculus, UniProt G1T803). As to the kind of experiment: Intestinal contraction activity by Magnus method using upper small intestine of rabbit. The protocol: An intestinal contraction activity was measured by Magnus method using upper small intestine of rabbit ["J. Pharm. Pharmac.", Vol. 28, pages 650-651 (1976)], on each motilin-like polypeptides (Example 1, wherein R1 is Hse, Asp-Gly-Ile-Phe-Hse, or Arg-Ile-Phe-Hse) according to the invention, as test samples and a conventional pure [Leu^13 ]-motilin, as control sample. The activities of the test samples and control sample were compared, under assumption of that an contraction activity caused by 10^-6 M acetylcholine is 100%.

Read-outs that look alike come from different tables or passages of the source. Square brackets hold non-standard residues; d marks the D form. Peptide text beside a SMILES is read from it. hSer = N[C@@H](CCO)C(=O)O

Sequence of upper small intestine of rabbit (G1T803 1-400): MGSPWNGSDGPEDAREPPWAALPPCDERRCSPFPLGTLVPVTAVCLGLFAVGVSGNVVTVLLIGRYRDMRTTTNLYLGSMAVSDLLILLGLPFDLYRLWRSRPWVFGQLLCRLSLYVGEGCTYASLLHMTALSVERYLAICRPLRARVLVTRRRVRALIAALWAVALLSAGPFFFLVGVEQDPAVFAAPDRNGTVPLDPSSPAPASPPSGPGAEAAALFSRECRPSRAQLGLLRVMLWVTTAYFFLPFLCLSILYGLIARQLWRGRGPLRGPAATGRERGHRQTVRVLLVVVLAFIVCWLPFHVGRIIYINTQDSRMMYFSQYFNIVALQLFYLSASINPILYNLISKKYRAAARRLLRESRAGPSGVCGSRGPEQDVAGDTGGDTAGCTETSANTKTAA

Regarding `CC[C@H](C)[C@H](NC(=O)[C@@H]1CCCN1C(=O)[C@@H](NC(=O)[C@@H](N)Cc1ccccc1)C(C)C)C(=O)N[C@@H](Cc1ccccc1)C(=O)N[C@H](C(=O)N[C@@H](Cc1ccc(O)cc1)C(=O)NCC(=O)N[C@@H](CCC(=O)O)C(=O)N[C@@H](CC(C)C)C(=O)N[C@@H](CCC(=O)O)C(=O)N[C@@H](CCCNC(=N)N)C(=O)N[C@@H](CC(C)C)C(=O)N[C@@H](CCC(N)=O)C(=O)N[C@@H](CCC(=O)O)C(=O)N[C@@H](CCCCN)C(=O)N[C@@H](CCC(=O)O)C(=O)N[C@@H](CCCNC(=N)N)C(=O)N[C@@H](CC(N)=O)C(=O)N[C@@H](CCCCN)C(=O)NCC(=O)N[C@@H](CCC(N)=O)C(=O)N[C@@H](CCO)C(=O)O)[C@@H](C)O` [(11) -Glu--Leu--Hse] (H-FVPIFTYGELERLQEKERNKGQ[hSer]-OH), the “Activity in vitro (%)” value amounted to 110%. Same read-out and setting: in the case of `CC[C@H](C)[C@H](NC(=O)[C@H](CCC(=O)O)NC(=O)CNC(=O)[C@H](Cc1ccc(O)cc1)NC(=O)[C@@H](NC(=O)[C@H](Cc1ccccc1)NC(=O)[C@@H](NC(=O)[C@@H]1CCCN1C(=O)[C@@H](NC(=O)[C@@H](N)Cc1ccccc1)C(C)C)[C@@H](C)CC)[C@@H](C)O)C(=O)N[C@@H](CCC(N)=O)C(=O)N[C@@H](CCCNC(=N)N)C(=O)N[C@@H](CC(C)C)C(=O)N[C@@H](CCC(N)=O)C(=O)N[C@@H](CCC(=O)O)C(=O)N[C@@H](CCCCN)C(=O)N[C@@H](CCC(=O)O)C(=O)N[C@@H](CCCNC(=N)N)C(=O)N[C@@H](CC(N)=O)C(=O)N[C@@H](CCCCN)C(=O)NCC(=O)N[C@@H](CCC(N)=O)C(=O)N[C@@H](CCO)C(=O)O` [(10) -Ile--Leu--Hse] (H-FVPIFTYGEIQRLQEKERNKGQ[hSer]-OH) it was 110%.

In the case of `CC[C@H](C)[C@H](NC(=O)[C@@H]1CCCN1C(=O)[C@@H](NC(=O)[C@@H](N)Cc1ccccc1)C(C)C)C(=O)N[C@@H](Cc1ccccc1)C(=O)N[C@H](C(=O)N[C@@H](Cc1ccc(O)cc1)C(=O)NCC(=O)N[C@@H](CCC(=O)O)C(=O)N[C@@H](CC(C)C)C(=O)N[C@@H](CCC(N)=O)C(=O)N[C@@H](CCCNC(=N)N)C(=O)N[C@@H](CCSC)C(=O)N[C@@H](CCC(N)=O)C(=O)N[C@@H](CCC(=O)O)C(=O)N[C@@H](CCCCN)C(=O)N[C@@H](CCC(=O)O)C(=O)N[C@@H](CCCNC(=N)N)C(=O)N[C@@H](CC(N)=O)C(=O)N[C@@H](CCCCN)C(=O)NCC(=O)N[C@@H](CCC(N)=O)C(=O)O)[C@@H](C)O` [motilin, reference compound], the “Activity in vitro (%)” value (Magnus method, from ED50, contraction activity of native motilin = 100%) was found to be 100%.

The values above are taken from patent US5432261A, “Motlin-like polypeptide and use thereof” (priority 1989, dated 1995).
